Assay results reported in PMC11277489, “Novel Piperazine Derivatives of Vindoline as Anticancer Agents” (International Journal of Molecular Sciences, 2024).
Where two headings read alike, the source gives them in different places.

How the values were obtained:
[1] = system: SNB-19; test: NCI60 one-dose screen (10 μM), CNS Cancer; type: cell-based; conditions: Homo sapiens
[2] = system: UACC-62; test: NCI60 one-dose screen (10 μM), Melanoma; type: cell-based; conditions: Homo sapiens
[3] = system: HCC-2998; test: NCI60 one-dose screen (10 μM), Colon Cancer; type: cell-based; conditions: Homo sapiens
[4] = system: NCI-H226; test: NCI60 one-dose screen (10 μM), Non-small Cell Lung Cancer; type: cell-based; conditions: Homo sapiens
[5] = system: NCI/ADR-RES; test: NCI60 one-dose screen (10 μM), Ovarian Cancer; type: cell-based; conditions: Homo sapiens, read-out: Growth percent rate
[6] = system: SK-MEL-5; test: NCI60 one-dose screen (10 μM), Melanoma; type: cell-based, human; conditions: Homo sapiens
[7] = system: BT-549; test: NCI60 one-dose screen (10 μM), Breast Cancer; type: cell-based; conditions: Homo sapiens
[8] = system: HT29; test: NCI60 one-dose screen (10 μM), Colon Cancer; type: cell-based; conditions: Homo sapiens
[9] = system: MDA-MB-231/ATCC; test: NCI60 one-dose screen (10 μM), Breast Cancer; type: cell-based, human; conditions: Homo sapiens
[10] = system: SK-OV-3; test: NCI60 one-dose screen (10 μM), Ovarian Cancer; type: cell-based; conditions: Homo sapiens
[11] = system: UO-31; test: NCI60 one-dose screen (10 μM), Renal Cancer; type: cell-based; conditions: Homo sapiens
[12] = system: OVCAR-5; test: NCI60 one-dose screen (10 μM), Ovarian Cancer; type: cell-based; conditions: Homo sapiens
[13] = system: DU-145; test: NCI60 one-dose screen (10 μM), Prostate Cancer; type: cell-based; conditions: Homo sapiens
[14] = system: MDA-MB-468; test: NCI60 one-dose screen (10 μM), Breast Cancer; type: cell-based; conditions: Homo sapiens
[15] = system: T-47D; test: NCI60 one-dose screen (10 μM), Breast Cancer; type: cell-based; conditions: Homo sapiens, T47D, read-out: Growth percent rate
[16] = system: HOP-92; test: NCI60 one-dose screen (10 μM), Non-small Cell Lung Cancer; type: cell-based; conditions: Homo sapiens
[17] = system: PC-3; test: NCI60 one-dose screen (10 μM), Prostate Cancer; type: cell-based; conditions: Homo sapiens
[18] = system: M14; test: NCI60 one-dose screen (10 μM), Melanoma; type: cell-based; conditions: Homo sapiens
[19] = system: SR; test: NCI60 one-dose screen (10 μM), Leukemia; type: cell-based; conditions: Homo sapiens, read-out: Growth percent rate

SMILES: CCC12C=CCN3CCC4(c5ccc(OC)cc5N(C)C4C(O)(C(=O)OC)C1OC(=O)CCCBr)C32 (centres unmarked) [Compound 14, 17-(O-4-bromobutanoyl)vindoline]
- activity at 10 µM ([1]; 10 μM, SNB-19, CNS Cancer, read-out: Growth percent rate): 89.3%
- activity at 10 µM ([2]; 10 μM, UACC-62, Melanoma, read-out: Growth percent rate): 83.8%
- activity at 10 µM ([3]; 10 μM, HCC-2998, Colon Cancer, read-out: Growth percent rate): 93.8%
- activity at 10 µM ([4]; 10 μM, NCI-H226, Non-small Cell Lung Cancer, read-out: Growth percent rate): 96%
- activity at 10 µM ([5]; 10 μM, Ovarian Cancer): 89.2%
- activity at 10 µM ([6]; 10 μM, SK-MEL-5, Melanoma, read-out: Growth percent rate): 84.3%
- activity at 10 µM ([7]; 10 μM, BT-549, Breast Cancer, read-out: Growth percent rate): 99.1%
- activity at 10 µM ([8]; HT-29, 10 μM, HT29, Colon Cancer, read-out: Growth percent rate): 94.1%
- activity at 10 µM ([9]; 10 μM, MDA-MB-231/ATCC, Breast Cancer, read-out: Growth percent rate): 90.6%
- activity at 10 µM ([10]; 10 μM, SK-OV-3, Ovarian Cancer, read-out: Growth percent rate): 101%
- activity at 10 µM ([11]; 10 μM, UO-31, Renal Cancer, read-out: Growth percent rate): 82.5%
- activity at 10 µM ([12]; 10 μM, OVCAR-5, Ovarian Cancer, read-out: Growth percent rate): 101%
- activity at 10 µM ([13]; 10 μM, DU-145, Prostate Cancer, read-out: Growth percent rate): 99.6%
- activity at 10 µM ([14]; 10 μM, MDA-MB-468, Breast Cancer, read-out: Growth percent rate): 95.7%
- activity at 10 µM ([15]; 10 μM, T-47D, Breast Cancer): 77.2%
- activity at 10 µM ([16]; 10 μM, HOP-92, Non-small Cell Lung Cancer, read-out: Growth percent rate): 77.6%
- activity at 10 µM ([17]; 10 μM, PC-3, Prostate Cancer, read-out: Growth percent rate): 79%
- activity at 10 µM ([18]; 10 μM, M14, Melanoma, read-out: Growth percent rate): 95.7%
- activity at 10 µM ([19]; 10 μM, Leukemia): 98.4%

SMILES: CC[C@]12C=CCN3CC[C@@]4(c5ccc(OC)cc5N(C)[C@H]4[C@@](O)(C(=O)OC)[C@@H]1OC(=O)CCC(=O)N1CCN(C(=O)c4ccco4)CC1)[C@@H]32 [Compound 32]
- activity at 10 µM ([1]; SNB-19, read-out: Growth percent rate): 91.2%
- activity at 10 µM ([2]; UACC-62, read-out: Growth percent rate): 59.5%
- activity at 10 µM ([3]; HCC 2998, read-out: Growth percent rate): 113%
- activity at 10 µM ([4]; NCI-H226, read-out: Growth percent rate): 115%
- activity at 10 µM [5]: 106%
- activity at 10 µM ([6]; SK-MEL-5, read-out: Growth percent rate): 83.8%
- activity at 10 µM ([7]; BT-549, read-out: Growth percent rate): 122%
- activity at 10 µM ([8]; HT-29, read-out: Growth percent rate): 102%
- activity at 10 µM ([9]; MDA-MB-231, read-out: Growth percent rate): 91.1%
- activity at 10 µM ([10]; SK-OV-3, read-out: Growth percent rate): 111%
- activity at 10 µM ([11]; UO-31, read-out: Growth percent rate): 98.8%
- activity at 10 µM ([12]; OVCAR-5, read-out: Growth percent rate): 105%
- activity at 10 µM ([13]; DU-145, read-out: Growth percent rate): 116%
- activity at 10 µM ([14]; MDA-MB-468, read-out: Growth percent rate): 78%
- activity at 10 µM [15]: 92.5%
- activity at 10 µM ([16]; HOP-92, read-out: Growth percent rate): 92.4%
- activity at 10 µM ([17]; PC-3, read-out: Growth percent rate): 90.6%
- activity at 10 µM ([18]; M14, read-out: Growth percent rate): 88.3%
- activity at 10 µM [19]: 117%
